Measured values published in the supplement of paper PMC10307832.

What was measured:
Assay in all cases: relative viability (nuclei count vs DMSO), 5 days (fraction); higher = more cells survive
Vismodegib + Decitabine = compound: CS(=O)(=O)c1ccc(C(=O)Nc2ccc(Cl)c(-c3ccccn3)c2)c(Cl)c1 [Vismodegib] + Nc1ncn([C@H]2C[C@H](O)[C@@H](CO)O2)c(=O)n1 [Decitabine] (partner 2 µM)
Outline: (§1)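 Dosing by pin tool came one day after lung cancer cell lines were seeded in 1536-well plates, using either one drug or a fixed anchor-drug dose plus five library-drug doses (not always all listed) in √10 steps. After 5 days, nuclei were counted on 4× images. Relative viability is treated-well nuclei count divided by vehicle-well nuclei count, and values are medians of duplicate plates.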

Ruxolitinib + Vorinostat = compound: N#CC[C@H](C1CCCC1)n1cc(-c2ncnc3[nH]ccc23)cn1 [Ruxolitinib] + O=C(CCCCCCC(=O)Nc1ccccc1)NO [Vorinostat] (partner 1 µM)
Outline: as §1

[1] = compound: N#CC[C@H](C1CCCC1)n1cc(-c2ncnc3[nH]ccc23)cn1 [Ruxolitinib] + CC(=O)c1c(C)c2cnc(Nc3ccc(N4CCNCC4)cn3)nc2n(C2CCCC2)c1=O [Palbociclib] (partner 0.5 µM)
Outline: as §1

Vismodegib + Alpelisib = compound: CS(=O)(=O)c1ccc(C(=O)Nc2ccc(Cl)c(-c3ccccn3)c2)c(Cl)c1 [Vismodegib] + Cc1nc(NC(=O)N2CCC[C@H]2C(N)=O)sc1-c1ccnc(C(C)(C)C(F)(F)F)c1 [Alpelisib] (partner 2 µM)
Outline: as §1

NCI-H3122 gave a relative viability (Vismodegib + Decitabine; first compound 0.08 µM) of 0.469, a relative viability (Vismodegib + Decitabine; first compound 0.253 µM) of 0.499 and a relative viability (Vismodegib + Decitabine; first compound 0.8 µM) of 0.512. It also gave a relative viability (Vismodegib + Decitabine; first compound 2.53 µM) of 0.423, a relative viability (Vismodegib + Decitabine; first compound 8 µM) of 0.323 and a relative viability (Ruxolitinib + Vorinostat; first compound 0.08 µM) of 0.886. It also gave a relative viability (Ruxolitinib + Vorinostat; first compound 0.253 µM) of 1.12, a relative viability (Ruxolitinib + Vorinostat; first compound 0.8 µM) of 1.13 and a relative viability (Ruxolitinib + Vorinostat; first compound 2.53 µM) of 0.962. For the same cell line, the relative viability (Ruxolitinib + Vorinostat; first compound 8 µM) was 1.02, the relative viability ([1]; first compound 0.08 µM) was 0.182 and the relative viability ([1]; first compound 0.253 µM) was 0.228. For the same cell line, the relative viability ([1]; first compound 0.8 µM) was 0.208, the relative viability ([1]; first compound 2.53 µM) was 0.166 and the relative viability ([1]; first compound 8 µM) was 0.191. It also gave a relative viability (Vismodegib + Alpelisib; first compound 0.08 µM) of 0.798, a relative viability (Vismodegib + Alpelisib; first compound 0.253 µM) of 0.726 and a relative viability (Vismodegib + Alpelisib; first compound 0.8 µM) of 0.816. The relative viability (Vismodegib + Alpelisib; first compound 2.53 µM) was 0.78 and the relative viability (Vismodegib + Alpelisib; first compound 8 µM) was 0.629.
For LU99A, the relative viability (Vismodegib + Decitabine; first compound 0.08 µM) was 0.944, the relative viability (Vismodegib + Decitabine; first compound 0.253 µM) was 0.844 and the relative viability (Vismodegib + Decitabine; first compound 0.8 µM) was 0.887. The relative viability (Vismodegib + Decitabine; first compound 2.53 µM) was 0.835, the relative viability (Vismodegib + Decitabine; first compound 8 µM) was 0.781 and the relative viability (Ruxolitinib + Vorinostat; first compound 0.08 µM) was 0.537. It also gave a relative viability (Ruxolitinib + Vorinostat; first compound 0.253 µM) of 0.482, a relative viability (Ruxolitinib + Vorinostat; first compound 0.8 µM) of 0.542 and a relative viability (Ruxolitinib + Vorinostat; first compound 2.53 µM) of 0.416. The relative viability (Ruxolitinib + Vorinostat; first compound 8 µM) was 0.426, the relative viability ([1]; first compound 0.08 µM) was 0.443 and the relative viability ([1]; first compound 0.253 µM) was 0.387. For the same cell line, the relative viability ([1]; first compound 0.8 µM) was 0.411, the relative viability ([1]; first compound 2.53 µM) was 0.369 and the relative viability ([1]; first compound 8 µM) was 0.332. The relative viability (Vismodegib + Alpelisib; first compound 0.08 µM) was 0.617, the relative viability (Vismodegib + Alpelisib; first compound 0.253 µM) was 0.544 and the relative viability (Vismodegib + Alpelisib; first compound 0.8 µM) was 0.474. The relative viability (Vismodegib + Alpelisib; first compound 2.53 µM) was 0.499 and the relative viability (Vismodegib + Alpelisib; first compound 8 µM) was 0.556.
Work on NCI-H1650 yielded a relative viability (Vismodegib + Decitabine; first compound 0.08 µM) of 0.411, a relative viability (Vismodegib + Decitabine; first compound 0.253 µM) of 0.388 and a relative viability (Vismodegib + Decitabine; first compound 0.8 µM) of 0.426. For the same cell line, the relative viability (Vismodegib + Decitabine; first compound 2.53 µM) was 0.447, the relative viability (Vismodegib + Decitabine; first compound 8 µM) was 0.512 and the relative viability (Ruxolitinib + Vorinostat; first compound 0.08 µM) was 0.558. For the same cell line, the relative viability (Ruxolitinib + Vorinostat; first compound 0.253 µM) was 0.557, the relative viability (Ruxolitinib + Vorinostat; first compound 0.8 µM) was 0.708 and the relative viability (Ruxolitinib + Vorinostat; first compound 2.53 µM) was 0.551. The relative viability (Ruxolitinib + Vorinostat; first compound 8 µM) was 0.57, the relative viability ([1]; first compound 0.08 µM) was 0.333 and the relative viability ([1]; first compound 0.253 µM) was 0.345. For the same cell line, the relative viability ([1]; first compound 0.8 µM) was 0.395, the relative viability ([1]; first compound 2.53 µM) was 0.287 and the relative viability ([1]; first compound 8 µM) was 0.356.
EMC-BAC-2 gave a relative viability (Vismodegib + Decitabine; first compound 0.08 µM) of 1, a relative viability (Vismodegib + Decitabine; first compound 0.253 µM) of 0.926 and a relative viability (Vismodegib + Decitabine; first compound 0.8 µM) of 0.964. It also gave a relative viability (Vismodegib + Decitabine; first compound 2.53 µM) of 0.9, a relative viability (Vismodegib + Decitabine; first compound 8 µM) of 1.04 and a relative viability (Ruxolitinib + Vorinostat; first compound 0.08 µM) of 0.412. The relative viability (Ruxolitinib + Vorinostat; first compound 0.253 µM) was 0.432, the relative viability (Ruxolitinib + Vorinostat; first compound 0.8 µM) was 0.443 and the relative viability (Ruxolitinib + Vorinostat; first compound 2.53 µM) was 0.621. For the same cell line, the relative viability (Ruxolitinib + Vorinostat; first compound 8 µM) was 0.279, the relative viability ([1]; first compound 0.08 µM) was 0.518 and the relative viability ([1]; first compound 0.253 µM) was 0.507. The relative viability ([1]; first compound 0.8 µM) was 0.58, the relative viability ([1]; first compound 2.53 µM) was 0.47 and the relative viability ([1]; first compound 8 µM) was 0.418. It also gave a relative viability (Vismodegib + Alpelisib; first compound 0.08 µM) of 0.716, a relative viability (Vismodegib + Alpelisib; first compound 0.253 µM) of 0.763 and a relative viability (Vismodegib + Alpelisib; first compound 0.8 µM) of 0.819. For the same cell line, the relative viability (Vismodegib + Alpelisib; first compound 2.53 µM) was 0.732 and the relative viability (Vismodegib + Alpelisib; first compound 8 µM) was 0.754.
